Data on 32 molecules can be found in patent publication US8748426B2, “Inhibitors of diacylglycerol acyl transferase” (Piramal Enterprises Limited, priority 2009, dated 2014).

In the assay the target is T1, hDGAT1 (Homo sapiens, UniProt O75907).
T1 sequence (O75907 1-488): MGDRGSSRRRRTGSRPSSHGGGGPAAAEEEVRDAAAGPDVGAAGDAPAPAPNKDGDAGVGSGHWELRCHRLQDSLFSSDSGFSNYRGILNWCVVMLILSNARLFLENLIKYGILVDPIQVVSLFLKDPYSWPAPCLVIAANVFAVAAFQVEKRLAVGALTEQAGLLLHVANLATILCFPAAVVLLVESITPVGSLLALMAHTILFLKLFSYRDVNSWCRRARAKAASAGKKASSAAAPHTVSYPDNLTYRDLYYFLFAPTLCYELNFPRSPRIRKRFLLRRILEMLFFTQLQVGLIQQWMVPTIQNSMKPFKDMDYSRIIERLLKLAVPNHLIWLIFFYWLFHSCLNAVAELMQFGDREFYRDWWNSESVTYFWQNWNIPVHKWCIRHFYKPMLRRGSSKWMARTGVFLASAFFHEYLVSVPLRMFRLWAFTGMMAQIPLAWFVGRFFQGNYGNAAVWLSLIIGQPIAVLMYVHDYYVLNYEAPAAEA
The assay is described as follows: In-vitro DGAT1 assay (14C oleoyl CoA, hDGAT1 microsomes from Sf9 cells). Particulars: for % Inhibition of hDGAT1: at 1 μM; for inhibition at 1 µM: read-out: % Inhibition of hDGAT1.

For the molecule “3-(1-Oxo-6-(4-(4-(trifluoromethyl)benzamido)phenyl)isoindolin-2-yl)cyclo hexanecarboxylic acid [Example 551]”, the “% Inhibition of hDGAT1” value is on record as “++ (>50% Inhibition)”.

Consider `CC(C)[C@@H](C(=O)O)N1Cc2ccc(-c3ccc(NC(=O)Nc4ccc(F)cc4)cc3)cc2C1=O` [Example 8, (S)-2-(6-(4-(3-(4-Fluorophenyl)ureido)phenyl)-1-oxoisoindolin-2-yl)-3-methyl butanoic acid], for which the inhibition at 1 µM lay within 10 to 50%.

As to `CC(C)[C@@H](C(=O)O)N1Cc2ccc(-c3ccc(NC(=O)Nc4ccc(F)cc4F)cc3)cc2C1=O` [Example 10, (S)-2-(6-(4-(3-(2,4-Difluorophenyl)ureido)phenyl)-1-oxoisoindolin-2-yl)-3-methylbutanoic acid], the inhibition at 1 µM lay within 10 to 50%.

As to `CC(C)[C@@H](C(=O)O)N1Cc2ccc(-c3ccc(NC(=O)Nc4ccccc4F)cc3)cc2C1=O` [Example 12, (S)-2-(6-(4-(3-(2-Fluorophenyl)ureido)phenyl)-1-oxoisoindolin-2-yl)-3-methyl butanoic acid], the inhibition at 1 µM fell in the range of 10 to 50%.

On to `CC(C)[C@@H](C(=O)O)N1Cc2ccc(-c3ccc(NC(=O)Nc4cccc(F)c4)cc3)cc2C1=O` [Example 14, (S)-2-(6-(4-(3-(3-Fluorophenyl)ureido)phenyl)-1-oxoisoindolin-2-yl)-3-methyl butanoic acid], for which the inhibition at 1 µM was in the range of 10 to 50%.

For `CC(C)[C@@H](C(=O)O)N1Cc2ccc(-c3ccc(NC(=O)Nc4ccccc4)cc3)cc2C1=O` [Example 16, (S)-3-Methyl-2-(1-oxo-6-(4-(3-phenylureido)phenyl)isoindolin-2-yl)butanoic acid], the inhibition at 1 µM fell in the range of 10 to 50%.

In the case of `CC(C)[C@@H](C(=O)O)N1Cc2ccc(-c3ccc(NC(=O)NCc4ccccc4)cc3)cc2C1=O` [Example 18, (S)-2-(6-(4-(3-Benzylureido)phenyl)-1-oxoisoindolin-2-yl)-3-methylbutanoic acid], the inhibition at 1 µM lay in the range of 10 to 50%.

On to `CC(C)[C@@H](C(=O)O)N1Cc2ccc(-c3ccc(NC(=O)Nc4c(F)cccc4F)cc3)cc2C1=O` [Example 20, (S)-2-(6-(4-(3-(2,6-Difluorophenyl)ureido)phenyl)-1-oxoisoindolin-2-yl)-3-methylbutanoic acid], for which the inhibition at 1 µM is 10 to 50%.

As to `Cc1cccc(NC(=O)Nc2ccc(-c3ccc4c(c3)C(=O)N([C@H](C(=O)O)C(C)C)C4)cc2)c1` [Example 22, (S)-3-Methyl-2-(1-oxo-6-(4-(3-m-tolylureido)phenyl)isoindolin-2-yl)butanoic acid], the inhibition at 1 µM was in the range of 10 to 50%.

As for `Cc1ccc(NC(=O)Nc2ccc(-c3ccc4c(c3)C(=O)N([C@H](C(=O)O)C(C)C)C4)cc2)cc1` [Example 24], the “% Inhibition of hDGAT1” value is on record as “+ (10-50% Inhibition)”.

As to `COc1cccc(NC(=O)Nc2ccc(-c3ccc4c(c3)C(=O)N([C@H](C(=O)O)C(C)C)C4)cc2)c1` [Example 26, (S)-2-(6-(4-(3-(3-Methoxyphenyl)ureido)phenyl)-1-oxoisoindolin-2-yl)-3-methyl butanoic acid], the inhibition at 1 µM was 10 to 50%.

Consider `COc1ccc(NC(=O)Nc2ccc(-c3ccc4c(c3)C(=O)N([C@H](C(=O)O)C(C)C)C4)cc2)cc1` [Example 28, (S)-2-(6-(4-(3-(4-Methoxyphenyl)ureido)phenyl)-1-oxoisoindolin-2-yl)-3-methylbutanoic acid], for which the inhibition at 1 µM is 10 to 50%.

On to `CC(C)[C@@H](C(=O)O)N1Cc2ccc(-c3ccc(NC(=O)Nc4cc(F)cc(F)c4)cc3)cc2C1=O` [Example 30, (S)-2-(6-(4-(3-(3,5-Difluorophenyl)ureido)phenyl)-1-oxoisoindolin-2-yl)-3-methylbutanoic acid], for which the inhibition at 1 µM is 10 to 50%.

Turning to `CC(C)[C@@H](C(=O)O)N1Cc2ccc(-c3ccc(NC(=O)Nc4ccc(F)c(F)c4)cc3)cc2C1=O` [Example 32, (S)-2-(6-(4-(3-(3,4-Difluorophenyl)ureido)phenyl)-1-oxoisoindolin-2-yl)-3-methylbutanoic acid], the inhibition at 1 µM fell in the range of 10 to 50%.

As for `CC(C)[C@@H](C(=O)O)N1Cc2ccc(-c3ccc(NC(=O)NC4CCCCC4)cc3)cc2C1=O` [Example 34, (S)-2-(6-(4-(3-Cyclohexylureido)phenyl)-1-oxoisoindolin-2-yl)-3-methylbutanoic acid], the inhibition at 1 µM was greater than 50%.

As to `CC(C)[C@@H](C(=O)O)N1Cc2ccc(-c3ccc(NC(=O)Nc4ccc(C(F)(F)F)cc4)cc3)cc2C1=O` [Example 36, (S)-3-Methyl-2-(1-oxo-6-(4-(3-(4-(trifluoromethyl)phenyl)ureido)phenyl)isoindolin-2-yl)butanoic acid], the inhibition at 1 µM was greater than 50%.

As for `CC(C)[C@@H](C(=O)O)N1Cc2ccc(-c3ccc(NC(=O)Nc4cccc(C(F)(F)F)c4)cc3)cc2C1=O` [Example 38, (S)-3-Methyl-2-(1-oxo-6-(4-(3-(3-(trifluoromethyl)phenyl)ureido)phenyl)isoindolin-2-yl)butanoic acid], the inhibition at 1 µM is greater than 50%.

As for `CC(C)[C@@H](C(=O)O)N1Cc2ccc(-c3ccc(NC(=O)Nc4ccc(C#N)cc4)cc3)cc2C1=O` [Example 40, (S)-2-(6-(4-(3-(4-Cyanophenyl)ureido)phenyl)-1-oxoisoindolin-2-yl)-3-methyl butanoic acid], the inhibition at 1 µM was greater than 50%.

Turning to `CC(C)[C@@H](C(=O)O)N1Cc2ccc(-c3ccc(NC(=O)Nc4cccc(C#N)c4)cc3)cc2C1=O` [Example 42, (S)-2-(6-(4-(3-(3-Cyanophenyl)ureido)phenyl)-1-oxoisoindolin-2-yl)-3-methyl butanoic acid], the inhibition at 1 µM is greater than 50%.

On to `CC(C)[C@@H](C(=O)O)N1Cc2ccc(-c3ccc(NC(=O)Nc4ccc(Cl)cc4Oc4ccccc4)cc3)cc2C1=O` [Example 44, (S)-2-(6-(4-(3-(4-Chloro-2-phenoxyphenyl)ureido)phenyl)-1-oxoisoindolin-2-yl)-3-methylbutanoic acid], for which the inhibition at 1 µM was greater than 50%.

For the molecule `CC(C)[C@@H](C(=O)O)N1Cc2ccc(-c3ccc(NC(=O)Nc4cc(Cl)ccc4Oc4ccccc4)cc3)cc2C1=O` [Example 46, (S)-2-(6-(4-(3-(5-Chloro-2-phenoxyphenyl)ureido)phenyl)-1-oxoisoindolin-2-yl)-3-methylbutanoic acid], the inhibition at 1 µM is greater than 50%.

Consider `CC(C)[C@@H](C(=O)O)N1Cc2ccc(-c3ccc(NC(=O)Nc4ccccc4Oc4ccccc4)cc3)cc2C1=O` [Example 48, (S)-3-Methyl-2-(1-oxo-6-(4-(3-(2-phenoxyphenyl)ureido)phenyl)isoindolin-2-yl)butanoic acid], for which the inhibition at 1 µM is greater than 50%.

As for `CC(C)[C@@H](C(=O)O)N1Cc2ccc(-c3ccc(NC(=O)Nc4ccc(Oc5ccccc5)cc4)cc3)cc2C1=O` [Example 50, (S)-3-Methyl-2-(1-oxo-6-(4-(3-(4-phenoxyphenyl)ureido)phenyl)isoindolin-2-yl)butanoic acid], the inhibition at 1 µM was greater than 50%.

In the case of `CC(C)[C@@H](C(=O)O)N1Cc2ccc(-c3ccc(NC(=S)Nc4ccccc4F)cc3)cc2C1=O` [Example 52, (S)-2-(6-(4-(3-(2-Fluorophenyl)thioureido)phenyl)-1-oxoisoindolin-2-yl)-3-methylbutanoic acid], the inhibition at 1 µM is 10 to 50%.

Consider `Cc1ccc(NC(=S)Nc2ccc(-c3ccc4c(c3)C(=O)N([C@H](C(=O)O)C(C)C)C4)cc2)cc1` [Example 54, (S)-3-Methyl-2-(1-oxo-6-(4-(3-p-tolylthioureido)phenyl)isoindolin-2-yl)butanoic acid], for which the inhibition at 1 µM was 10 to 50%.

Take `CC(C)[C@@H](C(=O)O)N1Cc2ccc(-c3ccc(NC(=S)Nc4cccc(F)c4)cc3)cc2C1=O` [Example 56, (S)-2-(6-(4-(3-(3-Fluorophenyl)thioureido)phenyl)-1-oxoisoindolin-2-yl)-3-methylbutanoic acid]: the inhibition at 1 µM was in the range of 10 to 50%.

With `COc1ccc(NC(=S)Nc2ccc(-c3ccc4c(c3)C(=O)N([C@H](C(=O)O)C(C)C)C4)cc2)cc1` [Example 58, (S)-2-(6-(4-(3-(4-Methoxyphenyl)thioureido)phenyl)-1-oxoisoindolin-2-yl)-3-methylbutanoic acid], the inhibition at 1 µM was greater than 50%.

As for `COc1cccc(NC(=S)Nc2ccc(-c3ccc4c(c3)C(=O)N([C@H](C(=O)O)C(C)C)C4)cc2)c1` [Example 60, (S)-2-(6-(4-(3-(3-Methoxyphenyl)thioureido)phenyl)-1-oxoisoindolin-2-yl)-3-methylbutanoic acid], the inhibition at 1 µM is greater than 50%.

Take `CC(C)[C@@H](C(=O)O)N1Cc2ccc(-c3ccc(NC(=S)Nc4ccc(Cl)cc4)cc3)cc2C1=O` [Example 62, (S)-2-(6-(4-(3-(4-Chlorophenyl)thioureido)phenyl)-1-oxoisoindolin-2-yl)-3-methyl butanoic acid]: the inhibition at 1 µM is 10 to 50%.

For the molecule `CC(C)[C@@H](C(=O)O)N1Cc2ccc(-c3ccc(NC(=S)Nc4cccc(Cl)c4)cc3)cc2C1=O` [Example 64, (S)-2-(6-(4-(3-(3-Chlorophenyl)thioureido)phenyl)-1-oxoisoindolin-2-yl)-3-methyl butanoic acid], the inhibition at 1 µM is 10 to 50%.

Consider `CC(C)[C@@H](C(=O)O)N1Cc2ccc(-c3ccc(NC(=S)Nc4ccccc4C(F)(F)F)cc3)cc2C1=O` [Example 66], for which the “% Inhibition of hDGAT1” value is reported as “++ (>50% Inhibition)”.

On to `CC(C)[C@@H](C(=O)O)N1Cc2ccc(-c3ccc(NC(=S)Nc4ccc(C#N)cc4)cc3)cc2C1=O` [Example 68, (S)-2-(6-(4-(3-(4-Cyanophenyl)thioureido)phenyl)-1-oxoisoindolin-2-yl)-3-methyl butanoic acid], for which the inhibition at 1 µM was greater than 50%.

In general, inhibition refers to the share of the control response that was lost under treatment.
